Experimental data taken from PubChem BioAssay AID1259407 (Chemical Carcinogenesis Research Information System (CCRIS), 2018).
Calls of active or inactive are those of the source. How the calls were made is not given here.

Tested on: CCRIS mutagenicity, Ames/micronucleus/aberration tests
Assay: CCRIS mutagenicity studies
[1] = Test System: AMES SALMONELLA TYPHIMURIUM, Strain/Indicator: TA98, Metabolic Activation: NONE, Method: STANDARD PLATE
[2] = Test System: AMES SALMONELLA TYPHIMURIUM, Strain/Indicator: TA100, Metabolic Activation: NONE, Method: STANDARD PLATE

## O=[N+]([O-])C1c2ccccc2-c2ccccc21
End Point: IN VITRO CHROMOSOMAL ABERRATIONS, Test System: CHINESE HAMSTER LUNG (CHL) CELLS, Metabolic Activation: NONE
  mutagenic call: active; positive
End Point: IN VITRO CHROMOSOMAL ABERRATIONS, Test System: CHINESE HAMSTER LUNG (CHL) CELLS, Metabolic Activation: NONE, Method: FISH
  mutagenic call: active; positive
End Point: IN VITRO CHROMOSOMAL ABERRATIONS, Test System: CHINESE HAMSTER LUNG (CHL) CELLS, Metabolic Activation: RAT, LIVER, S-9, KC-400
  mutagenic call: active; positive
Test System: E. COLI, Strain/Indicator: WP2 UVRA, Metabolic Activation: NONE, Method: FLUCTUATION
  mutagenic call: active; positive

## CC[C@H](c1ccc(O)cc1)[C@@H](CC)c1ccc(O)cc1
End Point: IN VITRO CHROMOSOMAL ABERRATIONS, Test System: CHINESE HAMSTER CELL DON (22;XY), Metabolic Activation: NONE
  mutagenic call: active; positive (ploidy changes)
[1]
  mutagenic call: inactive; negative
Test System: AMES SALMONELLA TYPHIMURIUM, Strain/Indicator: TA98, Metabolic Activation: RAT, LIVER, S-9, Method: STANDARD PLATE
  mutagenic call: inactive; negative
[2]
  mutagenic call: inactive; negative
Test System: AMES SALMONELLA TYPHIMURIUM, Strain/Indicator: TA100, Metabolic Activation: RAT, LIVER, S-9, Method: STANDARD PLATE
  mutagenic call: inactive; negative
Test System: AMES SALMONELLA TYPHIMURIUM, Strain/Indicator: TA1535, Metabolic Activation: NONE, Method: STANDARD PLATE
  mutagenic call: inactive; negative; toxicity at 50 ug/plate
Test System: AMES SALMONELLA TYPHIMURIUM, Strain/Indicator: TA1535, Metabolic Activation: RAT, LIVER, S-9, Method: STANDARD PLATE
  mutagenic call: inactive; negative; toxicity at 100 ug/plate
Test System: AMES SALMONELLA TYPHIMURIUM, Strain/Indicator: TA1537, Metabolic Activation: NONE, Method: STANDARD PLATE
  mutagenic call: inactive; negative; toxicity at 100 ug/plate
Test System: AMES SALMONELLA TYPHIMURIUM, Strain/Indicator: TA1537, Metabolic Activation: RAT, LIVER, S-9, Method: STANDARD PLATE
  mutagenic call: inactive; negative
Test System: AMES SALMONELLA TYPHIMURIUM, Strain/Indicator: TA1538, Metabolic Activation: NONE, Method: STANDARD PLATE
  mutagenic call: inactive; negative
Test System: AMES SALMONELLA TYPHIMURIUM, Strain/Indicator: TA1538, Metabolic Activation: RAT, LIVER, S-9, Method: STANDARD PLATE
  mutagenic call: inactive; negative; toxicity at 100 ug/plate
Test System: UDS RAT HEPATOCYTES, Strain/Indicator: THY INCORP (18-20 HR), Metabolic Activation: NONE, Method: LIQUID SCINTILLATION COUNTING
  mutagenic call: inactive; negative

## Cc1ccnc2ccccc12
Test System: AMES SALMONELLA TYPHIMURIUM, Strain/Indicator: TA100, Metabolic Activation: RAT, LIVER, S-9, PHENOBARBITAL AND 5,6-BENZOFLAVONE, Method: PREINCUBATION
  mutagenic call: active; positive
Test System: AMES SALMONELLA TYPHIMURIUM, Strain/Indicator: TA100, Metabolic Activation: RAT, LIVER, S-9, PHENOBARBITAL AND 5,6-NAPHTHOFLAVONE, Method: PREINCUBATION
  mutagenic call: active; positive
Test System: AMES SALMONELLA TYPHIMURIUM, Strain/Indicator: TA100, Metabolic Activation: RAT, LIVER, S-9, Method: PREINCUBATION
  mutagenic call: active; positive
Test System: UDS RODENT HEPATOCYTES, Strain/Indicator: THY INCORP (NON-S-PHASE), Metabolic Activation: NONE, Method: AUTORADIOGRAPHY
  mutagenic call: active; positive

## CC(C)(C)C1=CC(=O)C=CC1=O
Test System: AMES SALMONELLA TYPHIMURIUM, Strain/Indicator: TA97, Metabolic Activation: NONE, Method: PREINCUBATION
  mutagenic call: inactive; negative
Test System: AMES SALMONELLA TYPHIMURIUM, Strain/Indicator: TA97, Metabolic Activation: RAT, LIVER, S-9, PCB, Method: PREINCUBATION
  mutagenic call: inactive; negative
[1]
  mutagenic call: inactive; negative
Test System: AMES SALMONELLA TYPHIMURIUM, Strain/Indicator: TA98, Metabolic Activation: RAT, LIVER, S-9, AROCLOR 1254, Method: PREINCUBATION
  mutagenic call: inactive; negative
Test System: AMES SALMONELLA TYPHIMURIUM, Strain/Indicator: TA98, Metabolic Activation: RAT, LIVER, S-9, AROCLOR 1254, Method: STANDARD PLATE
  mutagenic call: inactive; negative
Test System: AMES SALMONELLA TYPHIMURIUM, Strain/Indicator: TA98, Metabolic Activation: RAT, LIVER, S-9, PCB, Method: PREINCUBATION
  mutagenic call: inactive; negative
[2]
  mutagenic call: inactive; negative
Test System: AMES SALMONELLA TYPHIMURIUM, Strain/Indicator: TA100, Metabolic Activation: RAT, LIVER, S-9, AROCLOR 1254, Method: PREINCUBATION
  mutagenic call: inactive; negative
Test System: AMES SALMONELLA TYPHIMURIUM, Strain/Indicator: TA100, Metabolic Activation: RAT, LIVER, S-9, AROCLOR 1254, Method: STANDARD PLATE
  mutagenic call: inactive; negative
Test System: AMES SALMONELLA TYPHIMURIUM, Strain/Indicator: TA100, Metabolic Activation: RAT, LIVER, S-9, PCB, Method: PREINCUBATION
  mutagenic call: inactive; negative
Test System: AMES SALMONELLA TYPHIMURIUM, Strain/Indicator: TA102, Metabolic Activation: NONE, Method: PREINCUBATION
  mutagenic call: inactive; negative
Test System: AMES SALMONELLA TYPHIMURIUM, Strain/Indicator: TA102, Metabolic Activation: RAT, LIVER, S-9, PCB, Method: PREINCUBATION
  mutagenic call: inactive; negative
Test System: CHINESE HAMSTER V-79, Strain/Indicator: V-79 (HGPRT)/6-THIOGUANINE, Metabolic Activation: NONE
  mutagenic call: inactive; negative
Test System: CHINESE HAMSTER V-79, Strain/Indicator: V-79 (HGPRT)/6-THIOGUANINE, Metabolic Activation: RAT, LIVER, HEPATOCYTES
  mutagenic call: inactive; negative
